Reference: patent US20060128695A1, “Cyclic nucleotide phosphodiesterase inhibitors, preparation and uses” (NEURO3D, priority 2002, published 2006)
Like-named read-outs stand apart in the source and are kept apart here.

Legend:
Format in all cases: biochemical, bovine
PDE2 = biological target: T1, PDE2 (Bos taurus, UniProt P14099); assay: Inhibition of PDE2, radioenzymatic phosphodiesterase assay; settings: for inhibition at 10 µM: read-out: PDE2 percentage inhibition at 10 μM
T1 construct: PDE2 was prepared from bovine endothelial cells by the same methods; endogenous in cells; host or cells: bovine endothelial cells
T1 sequence (P14099 1-921): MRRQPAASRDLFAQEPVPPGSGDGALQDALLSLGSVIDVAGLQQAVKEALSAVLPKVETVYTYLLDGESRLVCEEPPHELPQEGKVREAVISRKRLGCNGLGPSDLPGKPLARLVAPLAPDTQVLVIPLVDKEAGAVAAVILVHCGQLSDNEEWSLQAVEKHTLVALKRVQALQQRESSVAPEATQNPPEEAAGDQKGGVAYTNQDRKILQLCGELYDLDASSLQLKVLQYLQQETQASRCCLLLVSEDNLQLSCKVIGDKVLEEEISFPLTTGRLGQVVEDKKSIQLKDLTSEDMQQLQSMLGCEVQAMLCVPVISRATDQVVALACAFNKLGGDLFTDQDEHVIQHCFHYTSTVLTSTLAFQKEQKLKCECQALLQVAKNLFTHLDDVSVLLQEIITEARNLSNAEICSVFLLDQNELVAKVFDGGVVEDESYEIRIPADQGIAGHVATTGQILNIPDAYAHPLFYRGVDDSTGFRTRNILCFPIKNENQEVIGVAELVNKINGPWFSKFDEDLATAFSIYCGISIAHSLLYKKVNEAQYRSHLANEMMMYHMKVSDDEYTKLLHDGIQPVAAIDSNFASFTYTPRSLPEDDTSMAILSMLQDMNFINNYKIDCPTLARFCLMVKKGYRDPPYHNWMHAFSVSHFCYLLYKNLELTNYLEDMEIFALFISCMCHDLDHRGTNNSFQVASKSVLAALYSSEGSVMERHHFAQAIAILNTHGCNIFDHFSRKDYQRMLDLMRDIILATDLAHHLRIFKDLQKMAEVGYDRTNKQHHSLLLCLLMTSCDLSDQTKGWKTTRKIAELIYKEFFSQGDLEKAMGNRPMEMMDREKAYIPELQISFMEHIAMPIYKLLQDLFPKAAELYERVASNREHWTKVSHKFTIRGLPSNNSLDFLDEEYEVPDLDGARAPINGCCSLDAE

PDE4 = assay: Selectivity: inhibition of PDE4, radioenzymatic phosphodiesterase assay; settings: vascular smooth muscle; for PDE4 percentage inhibition at 10 μM: 10 μM test compound; for IC50: cells without % sign
Procedure: (§1) A 3 g segment of bovine aortic media cut into pieces with scissors was homogenized with an ultra-turrax then a potter glass/glass homogenizer in 7 volumes by weight of buffer A containing a protease inhibitor cocktail (20 mM Tris-HCl, 0.25 M saccharose, 2 mM magnesium acetate, 1 mM dithiothreitol, 5 mM EGTA, 2000 U/ml aprotinin, 10 mg/l leupeptin and 10 mg/l soya trypsic inhibitor). The homogenizate was centrifuged at 105,000 g for 1 hour. The supernatant was loaded on a DEAE-Sephacel column (15 x 1.6 cm) pre-equilibrated with buffer B (buffer A without the saccharose, EGTA and protease inhibitors). The column was washed until there was no detectable absorption at 280 nm, then eluted with a linear gradient of NaCl (0-0.5 M) in buffer B. 3-ml fractions were collected and enzyme activity was determined under the conditions described hereinbelow to localize the different enzymes PDE1, PDE3, PDE4 and PDE5 which were aliquoted and frozen at −80° C. (Lugnier et al., Biochem. Phamacol., 1986, 35: 1746-1751). PDE2 was prepared from bovine endothelial cells by the same methods (Lugnier and Schini, Biochem. Pharmacol., 1990, 39: 75-84).
(§2) Cyclic nucleotide phosphodiesterase activity was determined by a radioenzymatic method using tritium-labelled cyclic GMP or AMP (1 μM) as substrate (Lugnier et al., 1986). ^3H-labelled adenosine or guanosine monophosphate formed by hydrolysis of the radiolabelled cyclic nucleotide was then converted to ^3H-labelled adenosine or guanosine in a second reaction with […] in excess. The nucleoside formed was separated from the nucleotides by anion exchange chromatography. Nucleoside radioactivity was determined by liquid scintillation counting. Enzymatic incubations were carried out under conditions allowing no more than 15% hydrolysis of the substrate; each point was performed in duplicate.
(§3) The activity of the compounds was evaluated on other phosphodiesterase isoforms, particularly basal state or calmodulin-activated PDEl from vascular smooth muscle, PDE3, PDE4 and PDE5 from vascular smooth muscle.
(§4) The results obtained are presented in Tables 1 and 2 hereinbelow and are expressed as the percentage inhibition of enzymatic activity produced by […] of the test compound.

PDE5 = biological target: T2, PDE5 (Bos taurus, UniProt Q28156); assay: Selectivity: inhibition of PDE5, radioenzymatic phosphodiesterase assay; settings: 10 μM test compound; vascular smooth muscle; read-out: PDE5 percentage inhibition at 10 μM
T2 construct: localize the different enzymes PDE1, PDE3, PDE4 and PDE5 which were aliquoted and frozen; from tissue; host or cells: bovine aortic media (vascular smooth muscle)
Procedure: as §1, §2, §3, §4

[1] = 10 μM test compound, PDE2 from bovine endothelial cells

Molecule: COc1cc2c(cc1OC)N(C)C(=O)CN=C2c1cccc(-c2ccc(C#N)cc2)c1 [Compound 6m, 3′-(7,8-dimethoxy-1-methyl-2-oxo-2,3-dihydro-1H-1,4-benzodiazepin-5-yl)-1,1′-biphenyl-4-carbonitrile]
- inhibition at 10 µM (PDE2): 82.3%
- PDE4 percentage inhibition at 10 μM (PDE4): 37.3%

Molecule: COc1cc2c(cc1OC)N(C)C(=O)CN=C2c1cccc(-c2ccc(C(N)=O)cc2)c1 [Compound 6n, 3′-(7,8-dimethoxy-1-methyl-2-oxo-2,3-dihydro-1H-1,4-benzodiazepin-5-yl)-1,1′-biphenyl-4-carboxamide]
- inhibition at 10 µM (PDE2): 84.6%
- PDE4 percentage inhibition at 10 μM (PDE4): 58.7%

Molecule: CCN1C(=O)C(Cc2ccc(Cl)c(Cl)c2)N=C(c2ccccc2)c2cc(OC)c(OC)cc21 (centres unmarked) [Compound 7a, 3-(3,4-dichlorobenzyl)-1-ethyl-7,8-dimethoxy-5-phenyl-1,3-dihydro-2H-1,4-benzodiazepin-2-one]
- IC50 (PDE2): 3.13 µM
- IC50 (PDE4): 6.52 µM

Molecule: COc1cc2c(c(Br)c1OC)C(c1cccc(C(N)=O)c1)=NCC(=O)N2C [Compound 5b, 3-(6-bromo-7,8-dimethoxy-1-methyl-2-oxo-2,3-dihydro-1H-1,4-benzodiazepin-5-yl)benzamide]
- inhibition at 10 µM (PDE5): 21.6%
- IC50 (PDE2): 2.1 µM

Molecule: COc1cc2c(cc1OC)N(C)C(=O)C(Cc1ccc(Cl)c(Cl)c1)N=C2c1cccc(C#N)c1 (centres unmarked) [Compound 7b, 3-[3-(3,4-dichlorobenzyl)-7,8-dimethoxy-1-methyl-2-oxo-2,3-dihydro-1H-1,4-benzodiazepin-5-yl]benzonitrile]
- IC50 (PDE2): 5.5 µM

Molecule: COc1cc2c(cc1OC)N(C)C(=O)CN=C2c1cccc(-c2ccc(Cl)cc2)c1 [Compound 6j, 5-(4′-chloro-1,1′-biphenyl-3-yl)-7,8-dimethoxy-1-methyl-1,3-dihydro-2H-1,4-benzodiazepin-2-one]
- IC50 (PDE2): 0.71 µM
- IC50 (PDE4): 2.8 µM

Molecule: CCCN1C(=O)CN=C(c2cccc(C(N)=O)c2)c2cc(OC)c(OC)cc21 [Compound 5f, 3-(7,8-dimethoxy-1-propyl-2-oxo-2,3-dihydro-1H-1,4-benzodiazepin-5-yl)benzamide]
- IC50 (PDE2): 12.6 µM

Molecule: COc1cc2c(cc1OC)N(C)C(=O)CN=C2c1cccc(C(=O)N(C)C)c1 [Compound 36d, 3-(7,8-dimethoxy-1-methyl-2-oxo-2,3-dihydro-1H-1,4-benzodiazepin-5-yl)-N,N-dimethylbenzamide]
- inhibition at 10 µM (PDE2; [1]): 17%

Molecule: [6-(3-aminoethynyl)-7,8-dimethoxy-1-methyl-2-oxo-2,3-dihydro-1H-1,4-benzodiazepin-5-yl]benzonitrile [Compound 25g]
- PDE2 percentage inhibition at 10 μM (PDE2; [1]): 14.5%

Molecule: COc1cc2c(c(Br)c1OC)N(C)C(=O)CN=C2c1cccc(C(N)=O)c1 [Compound 5d, 3-(9-bromo-7,8-dimethoxy-1-methyl-2-oxo-2,3-dihydro-1H-1,4-benzodiazepin-5-yl)benzamide]
- inhibition at 10 µM (PDE2; [1]): 19.2%

Molecule: COc1cc2c(cc1OC)N(Cc1ccc(Cl)cc1)C(=O)CN=C2c1cccc(C#N)c1 [Compound 4c, 3-[1-(4-chlorobenzyl)-7,8-dimethoxy-2-oxo-2,3-dihydro-1H-1,4-benzodiazepin-5-yl]-benzonitrile]
- inhibition at 10 µM (PDE2): 35.3%

Molecule: CCCCC#Cc1cccc(C2=NCC(=O)N(C)c3cc(OC)c(OC)cc32)c1 [Compound 6b, 7,8-dimethoxy-5-(3′-hex-1-ynylphenyl)-1-N-methyl-1,3-dihydro-2H-1,4-benzodiazepin-2-one]
- IC50 (PDE2): 1.06 µM

Molecule: COc1cc2c(cc1OC)N(C)C(=O)CN=C2c1cccc(C#CCCCC#N)c1 [Compound 6d, 6-[3-(7,8-dimethoxy-1-methyl-2-oxo-2,3-dihydro-1H-1,4-benzodiazepin-5-yl)phenyl]hex-5-ynenitrile]
- IC50 (PDE2): 2.4 µM
- PDE4 percentage inhibition at 10 μM (PDE4): 55.7%

Molecule: COc1cc2c(cc1OC)C(c1cccc(C(N)=O)c1)=NCC(=O)N2 [Compound 5e, 3-(7,8-dimethoxy-2-oxo-2,3-dihydro-1H-1,4-benzodiazepin-5-yl)benzamide]
- IC50 (PDE2): 6.6 µM

Molecule: COc1cc2c(cc1OC)N(C)C(=O)CN=C2c1cccc(C(=O)N2CCN(Cc3ccccc3)CC2)c1 [Compound 36e, 5-{3-[(4-benzylpyperazin-1-yl)carbonyl]phenyl}7,8-dimethoxy-1-methyl-2-oxo-2,3-dihydro-1H-1,4-benzodiazepin-2-one]
- PDE2 percentage inhibition at 10 μM (PDE2; [1]): 27%

Molecule: COc1cc2c(cc1OC)N(CCc1ccccc1)C(=O)CN=C2c1cccc(C#N)c1 [Compound 4j, 3-[7,8-dimethoxy-2-oxo-1-(2-phenylethyl)-2,3-dihydro-1H-1,4-benzodiazepin-5-yl]-benzonitrile]
- inhibition at 10 µM (PDE2): 5.6%

Molecule: COc1cc2c(cc1OC)N(C)C(=O)CN=C2c1cccc(C(N)=S)c1 [Compound 9a, 3-(7,8-dimethoxy-1-methyl-2-oxo-2,3-dihydro-1H-1,4-benzodiazepin-5-yl)thiobenzamide]
- inhibition at 10 µM (PDE2; [1]): 85%

Molecule: COc1ccc2c(c1)N(C)C(=O)CN=C2c1cccc(C#N)c1 [Compound 29a, 3-(8-methoxy-1-methyl-2-oxo-2,3-dihydro-1H-1,4-benzodiazepin-5-yl)benzonitrile]
- IC50 (PDE2): 35 µM

Molecule: COc1cc2c(c(-c3ccccc3)c1OC)N(C)C(=O)CN=C2c1cccc(C#N)c1 [Compound 25a, 3-(7,8-dimethoxy-1-methyl-2-oxo-9-phenyl-2,3-dihydro-1H-1,4-benzodiazepin-5-yl)benzonitrile]
- inhibition at 10 µM (PDE2): 0%

Molecule: COc1cc2c(c(-c3ccccc3)c1OC)N(C)C(=O)CN=C2c1cccc(C(N)=O)c1 [Compound 5m, 3-(7,8-dimethoxy-1-methyl-2-oxo-9-phenyl-2,3-dihydro-1H-1,4-benzodiazepin-5-yl)benzamide]
- inhibition at 10 µM (PDE2): 5.9%

Molecule: COc1cc2c(cc1OC)N(C)C(=O)CN=C2c1cccc(N)c1 [Compound 17i, 5-(3-aminophenyl)-7,8-dimethoxy-1-methyl-1,3-dihydro-2H-1,4-benzodiazepin-2-one]
- inhibition at 10 µM (PDE2): 40%

Molecule: [9-(3-aminoethynyl)-7,8-dimethoxy-1-methyl-2-oxo-2,3-dihydro-1H-1,4-benzodiazepin-5-yl]benzonitrile [Compound 25f]
- PDE2 percentage inhibition at 10 μM (PDE2; [1]): 0%

Molecule: COc1cc2c(cc1OC)N(C)C(=O)CN=C2c1cccc([N+](=O)[O-])c1 [Compound 17c, 7,8-dimethoxy-1-methyl-5-(3-nitrophenyl)-1,3-dihydro-1,4-benzodiazepin-2-one]
- IC50 (PDE2): 6.1 µM
